Measurements: US20190358199A1 (priority 2010, published 2019)

Legend:
[1] = tested on: patients with Major Depressive Disorder; assay: Six-week double-blind placebo-controlled Phase 2 study, efficacy; format: in vivo, human
Source text: Subjects were identified who were between the ages of 18-65 (inclusive), and met criteria for Major Depressive Disorder in accordance with the Diagnostic and Statistical manual of Mental Disorders-IV-TR and confirmed by the MINI International Neuropsychiatric Interview.
Subjects were required to refrain from taking antidepressants, anticonvulsants including gabapentin and pregabalin, neuroleptics, MAO inhibitors, barbiturates, benzodiazepines, stimulants, antipsychotics, lithium, anxiolytics and beta blockers starting two weeks prior to the study and continuing until after the follow-up visit.
(§1) • Visits and evaluations were performed according to the following schedule of events: • Visit 1: Screening Visit: • The following was obtained/performed at the Screening Visit (Visit 1): • Written informed consent • Medical history including: • Relevant demographic information • Detailed medical and surgical history, including review of systems • Whenever possible, the patient's medical history was confirmed by medical records. • Prior medication: Medication taken by the patients 30 days prior to the Screening Visit was recorded. • AE assessment • Height (cm) • Weight (kg); BMI was determined and was ≤35 for the patient to be randomized • Complete physical examination • MINI diagnostic exam • Vital signs (respiratory rate, oral temperature (° C.), blood pressure, pulse). […] The capsules were taken for 7 days prior to the Baseline/Day 1 Visit (Visit 3). The first dose of placebo was taken at the clinic with 240 mL of water after a light meal. • Patients were provided with a diary to record the date, time and dosage of each dose.
(§2) Efficacy was determined by measuring the change from baseline in the Montgomery-Åsberg Depression Rating Scale (MADRS), the HAMD-17, the Clinical Global Impression Global Improvement Scale (CGI-I), the Clinical Global Impression-Severity scale (CGI-S) and the Derogatis Interview for Sexual Functioning Self-Report (DISF-SR). […] Comparisons between treatment groups based on MADRS (the primary efficacy parameter), HAMD-17, Anhedonia, DISF-SR, CGI-I and CGI-S scores were analyzed using a mixed-repeated measures (MMRM) analysis model including factors for Subject, Visit, Treatment Arm and Baseline value as a covariate. Adjusted least-squares means from these models are presented. Comparisons between groups were made at each post-baseline visit using model-based contrasts and adjusted degrees of freedom. For these analyses no explicit data imputations were made prior to the analysis. Response and remission categorical data were analyzed using chi-square tests. Inferential analyses of safety data were conducted with ANOVA models or chi-square tests. Two-tail alpha was set to 0.05. All analyses were conducted using SAS version 9.2.

[2] = Six-week double-blind placebo-controlled Phase 2 study, safety and tolerability; format: in vivo, human
Method: Subjects were evaluated for safety parameters prior to and throughout the trial by a variety of measures including electrocardiogram, physical examination, vital signs and body weight, and clinical laboratory testing including a lipid panel, CBC with differential and urinalysis, Samples were drawn to assess total bilirubin, alkaline phosphatase, ALT (SGPT), AST (SGOT), blood urea nitrogen (BUN), creatinine, glucose, uric acid, calcium, phosphorus, total protein, albumin, total cholesterol, LDL, HDL, triglycerides, sodium, potassium, bicarbonate, chloride, GGT and creatine kinase, Hepatitis B, C and HIV serologies, TSH, drug screen and serum pregnancy test for females.
as §1, §2

symptoms of depression = conditions: eight weeks of treatment; Sepracor Press Release, Jul. 1, 2009; cited from earlier work

Clc1ccc([C@]23CNC[C@H]2C3)cc1Cl [(+)-1-(3,4-dichlorophenyl)-3-azabicyclo[3.1.0]hexane]
Response rate, MADRS ([1]; Visit 8, LOCF, Completers, 100 mg, 50% reduction or more of baseline total score, 8/20): 40.00% | Response rate, HAMD-17 ([1]; Visit 8, LOCF, Completers, 100 mg, 50% reduction or more of baseline total score, 11/20): 55.00% | Remission rate, HAMD-17 ([1]; Visit 8, LOCF, Completers, 100 mg, HAMD-17 ≤ 7, 4/20): 20.00% | Remission rate, MADRS ([1]; Visit 8, LOCF, Completers, 100 mg, MADRS ≤ 12, 6/20): 30.00% | CGI-S LS mean, Difference placebo vs drug ([1]; Visit 8, MMRM, MITT, 95% CI (−0.21, 0.66), P = 0.306): 0.22 | overall statistical effect size (Cohen's d), MADRS total score vs placebo ([1]; Week 6, MMRM): −0.63 | percentage of patients who reported an adverse treatment event ([2]; 10 patients, placebo 11 or 39.28%): 30.30% | Treatment-Emergent Adverse Events: Abdominal Pain (NOS) (% of Patients) ([2]; n = 33): 2 (6.06%) | Treatment-Emergent Adverse Events: Anxiety (% of Patients) ([2]; n = 33): 2 (6.06%) | Treatment-Emergent Adverse Events: Diarrhea NOS (% of Patients) ([2]; n = 33): 2 (6.06%) | Treatment-Emergent Adverse Events: Emotional Disturbance NOS (% of Patients) ([2]; n = 33): 2 (6.06%) | Treatment-Emergent Adverse Events: Headache NOS (% of Patients) ([2]; n = 33): 3 (9.09%) | Treatment-Emergent Adverse Events: Irritability (% of Patients) ([2]; n = 33): 2 (6.06%) | Treatment-Emergent Adverse Events: Nausea (% of Patients) ([2]; n = 33): 2 (6.06%) | Treatment-Emergent Adverse Events: Rash NOS (% of Patients) ([2]; n = 33): 2 (6.06%) | Treatment-Emergent Adverse Events: Upper Respiratory Tract Infection NOS (% of Patients) ([2]; n = 33): 2 (6.06%) | patients who discontinued the study early due to AEs ([2]; same number in the placebo group): Two | serious AEs ([2]; six-week study): no serious AEs were reported

N[C@@H]1CC[C@@H](c2ccc(Cl)c(Cl)c2)c2ccccc21 [SEP-225289]
primary efficacy endpoint compared to placebo (reduction in symptoms of depression, 17-item HAM-D) (symptoms of depression): did not meet the primary efficacy endpoint compared to placebo
